Measured values taken from publication PMC4837090 (Nature chemical biology, 2016).

Columns and labels:
hAIG1 = target: T1, hAIG1 (Homo sapiens, UniProt Q9NVV5); format: binding
T1 sequence (Q9NVV5 1-238): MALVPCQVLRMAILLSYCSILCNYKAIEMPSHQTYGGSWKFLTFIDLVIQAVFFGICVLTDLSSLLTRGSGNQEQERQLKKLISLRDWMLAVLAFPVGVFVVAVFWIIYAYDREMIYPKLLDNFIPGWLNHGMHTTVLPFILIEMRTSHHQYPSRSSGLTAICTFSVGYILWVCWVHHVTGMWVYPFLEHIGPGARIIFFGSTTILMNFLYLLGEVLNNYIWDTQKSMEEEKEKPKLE

LNCaP cells = test: in situ 13C,2H-PAHSA hydrolysis; format: cell-based, human; settings: 5 μM, 4 h, then 2 μM 13C,2H-PAHSA 2 h

CCCCCCCCCCC[C@@H](C[C@@H]1OC(=O)[C@H]1CCCCCC)OC(=O)[C@H](CC(C)C)NC=O [THL, tetrahydrolipstatin]
inhibition of FP reactivity of AIG1 (hAIG1): did not inhibit
reduction in 13C16-PA and 2H19-HSA products (13C,2H-PAHSA hydrolysis) vs DMSO (LNCaP cells): negligible alterations
